Source: patent US5356775A, “Primary structure for functional expression from complementary DNA of a mammalian ATP-sensitive potassium channel” (Brigham & Women's Hospital, priority 1992, dated 1994)
Entries after “also recorded” stand apart in the source; their conditions may differ.

Columns and labels:
[1] = biological target: T1, ROMK1 (Rattus norvegicus, UniProt P35560); test: Two-electrode voltage clamp of Xenopus oocytes injected with ROMK1 mRNA; assay type: cell-based; details: 10 mM, [K+]ext = 50 mM, test potentials -60 to 0 mV
T1 construct: This coding region encodes a protein of 391 amino acids; expressed in transfected cells; host or cells: Xenopus laevis oocytes injected with cRNA transcribed in vitro from ROMK1 cDNA (pSPORT1)
T1 sequence (P35560 1-391): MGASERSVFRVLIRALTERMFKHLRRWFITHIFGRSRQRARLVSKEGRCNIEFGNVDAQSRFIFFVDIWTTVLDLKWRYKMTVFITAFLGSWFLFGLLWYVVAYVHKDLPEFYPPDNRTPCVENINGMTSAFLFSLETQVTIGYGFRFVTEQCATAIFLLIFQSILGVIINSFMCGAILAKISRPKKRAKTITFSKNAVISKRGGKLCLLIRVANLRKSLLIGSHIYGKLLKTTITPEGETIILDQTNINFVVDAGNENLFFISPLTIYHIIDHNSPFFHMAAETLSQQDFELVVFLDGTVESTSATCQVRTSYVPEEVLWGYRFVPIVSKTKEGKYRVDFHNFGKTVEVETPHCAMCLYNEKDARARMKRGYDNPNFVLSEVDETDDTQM
Procedure: (E) Representative current tracings in oocytes injected with ~0.3 ng ROMK1 mRNA or H2 O evoked by 450 ms test pulses from a VH =-45 mV to test potentials from -60 mV to 0 mV in 20 mV increments in the presence or absence of 10 mM Ba2+, [K+ ]ext =50 mM. ROMK1 currents were blocked by 10 mM Ba^2+ at the test potentials used.
(§1) Size-fractionated mRNA with a size of ~2-3 kb yielded a highly augmented mean inward IK(Ba) sixteen-fold greater than that of H2 O-injected controls when injected into oocytes (FIG. 1D) and was therefore used to construct a directional cDNA library in the vector pSPORT1. RNA transcribed in vitro from pooled clones using T7 RNA polymerase was injected into Xenopus oocytes and tested for IK(Ba) currents using two-electrode voltage clamping. Functional screening of cRNA led to the identification of a 2.1 kb cDNA, ROMK1.

[2] = tested on: Ba2+-sensitive potassium currents (IK(Ba)) expressed from rat kidney ISOM poly(A)+ RNA; test: Two-electrode voltage clamp of Xenopus oocytes injected with rat kidney ISOM poly(A)+ RNA; assay type: cell-based; details: 5 mM Ba2+, [K+]ext = 50 mM, test potentials -80 to 0 mV
Procedure: (A) Representative current tracings evoked by 450 ms voltage steps ranging from -80 mV to 0 mV in 20 mV increments from a holding potential (VH) of -60 mV in oocytes injected with ~25 ng ISOM poly(A)^+ RNA or 50 nl H2 O [K^+ ]ext =50 mM.
(B) Current-voltage relationships of IK(Ba) in a representative ISOM poly(A)^+ RNA-injected oocyte ( ) and a H2 O-injected control (.circle.). […] Both current amplitudes and Vm were measured 75 ms after initiation of test pulses; Ba^2+ -sensitive current (KK(Ba)) amplitudes were obtained by determining the difference in current amplitudes before and after the addition of 5 mM Ba^2+ at each test potential and plotted as a function of observed Vm.
as §1

[3] = biological target: T2, ROMK1 K+ channels (Rattus norvegicus, UniProt P35560); test: Single channel patch clamp recording, inside-out patches excised from ROMK1 mRNA-injected Xenopus oocytes; assay type: cell-based
T2 construct: This coding region encodes a protein of 391 amino acids; expressed in transfected cells; host or cells: Xenopus laevis oocytes injected with cRNA transcribed in vitro from ROMK1 cDNA (pSPORT1)
T2 sequence (P35560 1-391): T1 sequence (P35560 1-391)
Procedure: FIG. 2. Single channel characteristics of ATP-sensitive ROMK1 K^+ channels expressed in Xenopus oocytes. Channel activities were recorded in inside-out patches excised from oocyte membranes.
Changes made in bath solution ATP concentration are indicated above the current recording: ATP-free (solid line), 0.025 mM ATP (dashed line). Recordings were taken at VH =-80 mV. Interruptions were introduced into the recording shown in order to display the entire current tracing. Expanded current tracings taken from the continuous recording are indicated by numbers and arrowheads.
(E) The inhibitory effect of 2.5 mM ATP on channel activity. Changes in bath solution ATP concentration are indicated above the current recording; 0.025 mM ATP (dashed line), 2.5 mM ATP (solid line). […] The recording was taken at VH =-40 mV. Expanded current tracings taken from the recording at various time intervals are indicated by arrows and numbers. The pipette solution contained (mM): 150 or 50 KCl, 1 CaCl2, 1 MgCl2, 5 HEPES (pH 7.4). The bath solution contained (mM): 0,0.025 or 2.5 MgATP, 150 KCl, 1 MgCl2 , 5 EGTA, 5 HEPES (pH 7.4).
Single channel recordings were obtained in oocytes injected with ROMK1 mRNA following vitelline membrane removal using standard patch clamp techniques to further characterize the properties of ROMK1 K^+ currents (FIG. 2). […] At negative membrane potentials, the amplitude of inward currents increased linearly with increasing hyperpolarization relative to Erev (Erev =O mV for symmetrical K^+ solutions). […] Similar inwardly rectifying currents were also observed in the cell-attached patch configuration. The K^+ selectivity of these currents was confirmed by varying the pipette solution K^+ concentration ([K^+ ]ext). Reversal potentials obtained with pipette solutions containing either 150 mM KCl or 50 mM KCl+100 mM NaCl were in complete agreement with the Nernstian predictions for Erev under these conditions (FIGS. 2B, 2C); the permeability ratio (PNa /PK) of 0.025 for these channels indicates high K^+ selectivity. […] Epithelial KATP channels (classified as Type 3) present in renal tubular cells from the thick ascending limb of Henle and the conical collecting duct (Bliech et al., Pflugers Arch. 415:449 (1990); Wang et al., Am. J. Physiol. 258:F244 (1990); Wang et al., Am. J. Physiol. 259:F494 (1990)) have single conductances of ~25-60 pS and share similar characteristics.
The effect of intracellular ATP on ROMK1 currents was also investigated using the inside-out patch configuration. […] In contrast, channel activity was routinely maintained for 30 minutes or longer by excision of patches directly into a bath solution containing 25 μM MgATP. […] Channels with these properties and electrophysiological characteristics were never observed in either cell-attached or inside-out patches from H2 O-injected control oocytes; in contrast, several channels of this type were typically active in patches from ROMK1 mRNA-injected oocytes. The incidence of ROMK1 channels in patches was 94% (63 of 67 patches) which was consistent with the high channel density observed in these experiments. […] In channels of both types, channel rundown rapidly occurs in excised membrane patches; this loss of channel activity is reversed or prevented, at least partially, by the addition of MgATP (Ashcroft et al., Cellular Signalling 2:197 (1990); Ashcroft, F. M., Ann. Rev. Neurosci. 11:97 (1988); Nichols et al., Am. J. Physiol. 261:H1675 (1991); Wang et al., J. Gen. Physiol. 98:35 (1991)).

[4] = biological target: renal Type 3 KATP channels; details: read-out: Ki of intracellular ATP; cited from earlier work
[5] = tested on: Type 1 channels in pancreatic β-cells; details: read-out: Ki of intracellular ATP; cited from earlier work
[6] = biological target: Type 1 channels in cardiac myocytes; details: read-out: Ki of intracellular ATP; cited from earlier work
[7] = biological target: Type 2 KATP channels (central neurons); details: central neurons (e.g. ventromedial hypothalamic nucleus), read-out: Ki of ATP; cited from earlier work

[Ba+2] [Ba^2+]
inhibition (block) of ROMK1 currents [1]: blocked
inhibition of currents expressed in RNA-injected oocytes [2]: marked inhibition

CC[N+](CC)(CC)CC [TEA^+]
inhibition (block) of ROMK1 currents [1]: no inhibition

Nc1ncnc2c1ncn2[C@@H]1O[C@H](COP(=O)(O)OP(=O)(O)OP(=O)(O)O)[C@@H](O)[C@H]1O [ATP]
effect on channel activity of high ATP at the cytosolic face of inside-out patches ([3]; 1.0-2.5 mM ATP, patches initially excised into bath containing 25 μM ATP): rapid and marked inhibition of channel activity
effect of 2.5 mM ATP on channel activity ([3]; ATP raised from 0.025 mM to 2.5 mM by puffer pipette, VH = -40 mV): inhibition of channel activity
restoration of channel activity following channel rundown ([3]; readdition of 25 μM (0.025 mM) ATP after ATP-free bath): Partial restoration of channel activity; also recorded: channel recovery
reversibility of inhibition by ATP ([3]; wash-out of the high ATP-containing solution): reversible
Ki [4]: 200 to 500 µM
Ki [5]: 10 to 20 µM
Ki [6]: 17 to 100 µM
Ki [7]: 2000 to 3000 µM

Nc1ncnc2c1ncn2[C@@H]1O[C@H](COP(=O)(O)OP(=O)(O)OP(=O)(O)O)[C@@H](O)[C@H]1O [MgATP]
time channel activity was maintained in excised patches ([3]; patches excised directly into bath solution containing 25 μM MgATP): ≥ 30 min
